Measured values from patent publication US20260097022A1, “COMPOUNDS AND USES THEREOF” (Integrated Biosciences, Inc., priority 2023, published 2026).

Test system: etoposide-treated IMR-90 cells
Assay: Etoposide-induced senescence model, resazurin cell viability (screen and dose-response)
Format: cell-based, human
Conditions: 1 μM, 3 days
Procedure: Cell culture. Human lung fibroblast (IMR-90) cells were obtained from ATCC (CCL-186) and passaged less than 10 times (less than 30 population doublings) for all experiments described in this example, with the exception of high-passage cells used in the model of replicative senescence (see the section on Replicative senescence below). Cells were cultured in growth media comprising Eagle's Minimum Essential Medium (EMEM: ATCC 30-2003) supplemented with 10% fetal bovine serum (FBS: Thermo Fisher 16140071) and 1% penicillin-streptomycin (Thermo Fisher 15070063). Cells were incubated in a humidity-controlled incubator at 37° C., with 5% CO2. Cells were detached using trypsin-EDTA (0.05%; Gibco 25300120).
Etoposide-induced senescence. IMR-90 cells were cultured as described above. At between 30 to 50% confluence, the media was replaced with complete growth media containing vehicle (0.5% dimethyl sulfoxide: DMSO, MilliporeSigma D5879) or complete growth media containing 50 μM etoposide (prepared as a 1:200 dilution of a 10 mM stock solution in DMSO; etoposide, MilliporeSigma E1383). Cells were treated for 2 days, after which the media was replaced with fresh growth media and cells were allowed to recover for 4 days. Cells were then plated as described below.
Chemical screening. For all screening experiments. 99 μL of cells were plated into each well of a 96-well clear flat-bottom, black polystyrene tissue-culture-treated plate (Corning 3904) at a density of ˜10+ cells/well. Plates were incubated overnight for adhesion. The day after plating. 1 μL of each compound, prepared as either a 1 mM stock solution in DMSO (10 μM final concentration screen) or 0.1 mM stock solution in DMSO (1 μM final concentration screen), was added to each well using an Agilent Bravo liquid handler. A built-in slow mixing step involving aspirating and dispensing was used to enhance distribution of the added compounds in solution. Cells were incubated for 3 days, after which resazurin (MilliporeSigma R^7017) was added to each well to a final concentration of 0.15 mM. After an additional 1 day of incubation, the fluorescence excitation/emission at 550/590 nm was read using a SpectraMaxR M3 plate reader and manufacturer software (SoftMax Pro R 6). Experiments were performed in biological duplicate.
Three-fold serial dilutions of compound were prepared in DMSO, then added to cell plates (final concentration of DMSO. 1%). Cell viability was then assayed as detailed above, and resazurin fluorescence values were linearly interpolated with respect to values from empty and positive control (non-treatment) wells. Experiments were performed in biological duplicate each on two independent occasions. When possible, chemical stocks from commercial suppliers were used: econazole nitrate (Cayman Chemical 20223), artenimol (Cayman Chemical 19846), and ABT-263 (Cayman Chemical 11500) were from Cayman Chemical, and dehydrodeguelin was aliquoted from the screening library.
Calculation of cellular viability values in dose-response curves. […] For each sample, the fluorescence intensity value was normalized by the mean of two untreated control values. Cellular viability values are therefore indicated as fractions of the cellular viability of untreated controls. Vehicle (1% DMSO) control values are included in each dose-response curve. Experiments were performed in biological duplicate each on two independent occasions.
Calculation of baseline cellular viability values. […] Additionally, baseline cellular viability values were calculated for untreated cells at the start of the experiment. Resazurin was added to a final concentration of 0.15 mM on the day of seeding (corresponding to day 0 in FIG. 7).

SMILES	senolytic activity in screen
Cc1c(-c2ccc(N3CCc4cccc(C(=O)Nc5nc6ccccc6s5)c4C3)nc2C(=O)O)cnn1CC12CC3CC(CC(C3)C1)C2 [A-1331852, reference compound]	inactive

Same assay, conditions: 10 μM, 3 days; active: control viability >0.5, Snc/control ratio <0.7

SMILES	senolytic activity in screen
CN(C)CC#Cc1ccc(OCCCc2sc(N3CCc4cccc(C(=O)Nc5nc6ccccc6s5)c4C3)nc2C(=O)O)c(F)c1 [A-1155463, reference compound]	active
Cc1c(-c2ccc(N3CCc4cccc(C(=O)Nc5nc6ccccc6s5)c4C3)nc2C(=O)O)cnn1CC12CC3CC(CC(C3)C1)C2 [A-1331852, reference compound]	active

Same assay, conditions: etoposide-induced senescence model; ratio of IC50 values between etoposide- and DMSO-treated IMR-90 fibroblasts

SMILES	Therapeutic Index (TI)
CCOc1ccc(NC(=O)CSc2nc3ccc(NC(=O)c4cccc(C)c4)cc3s2)cc1 [compound 2]	+++ (compounds with a TI of >5 were labeled as +++)
COc1ccc(NC(=O)CSc2nc3ccc(NC(=O)c4ccccc4F)cc3s2)cc1 [compound 3]	+++ (compounds with a TI of >5 were labeled as +++)
O=C(CSc1nc2ccc(NC(=O)c3ccc(Cl)cc3Cl)cc2s1)Nc1ccccc1 [compound 4]	+++ (compounds with a TI of >5 were labeled as +++)
COc1ccc(C(=O)Nc2ccc3nc(SCC(=O)Nc4ccccc4)sc3c2)cc1OC [compound 5]	+++ (compounds with a TI of >5 were labeled as +++)
Cc1cccc(C(=O)Nc2ccc3nc(SCC(=O)Nc4ccccc4C)sc3c2)c1 [compound 7]	+++ (compounds with a TI of >5 were labeled as +++)
O=C(CSc1nc2ccc(NC(=O)c3ccccc3)cc2s1)NC[C@H]1CCCO1 [compound 8]	+++ (compounds with a TI of >5 were labeled as +++)
CCCCOc1ccc(NC(=O)CSc2nc3ccc(NC(=O)c4ccc(C(C)(C)C)cc4)cc3s2)cc1 [compound 9]	+++ (compounds with a TI of >5 were labeled as +++)
Cc1ccc(NC(=O)C(C)Sc2nc3ccc(NC(=O)c4ccccc4F)cc3s2)cc1 (stereo not drawn) [compound 10]	+++ (compounds with a TI of >5 were labeled as +++)
COc1ccc(C(=O)Nc2ccc3nc(SCC(=O)Nc4ccc(C)cc4C)sc3c2)cc1 [compound 11]	+++ (compounds with a TI of >5 were labeled as +++)
COc1ccc(NC(=O)CSc2nc3ccc(NC(=O)c4cccc(OC)c4)cc3s2)cc1 [compound 12]	+++ (compounds with a TI of >5 were labeled as +++)
COc1cccc(C(=O)Nc2ccc3nc(SCC(=O)Nc4ccc(C)cc4)sc3c2)c1 [compound 13]	+++ (compounds with a TI of >5 were labeled as +++)
CC(C)c1ccc(NC(=O)CSc2nc3ccc(NC(=O)c4ccccc4)cc3s2)cc1 [compound 14]	+++ (compounds with a TI of >5 were labeled as +++)
CCC(Sc1nc2ccc(NC(=O)c3ccccc3)cc2s1)C(=O)Nc1ccc(C(C)=O)cc1 (stereo not drawn) [compound 15]	+++ (compounds with a TI of >5 were labeled as +++)
COc1ccc(OC)c(NC(=O)CSc2nc3ccc(NC(=O)c4ccccc4C)cc3s2)c1 [compound 16]	+++ (compounds with a TI of >5 were labeled as +++)
CC(=O)c1ccc(NC(=O)CSc2nc3ccc(NC(=O)c4ccccc4Cl)cc3s2)cc1 [compound 17]	+++ (compounds with a TI of >5 were labeled as +++)
Cc1ccc(C(=O)Nc2ccc3nc(SCC(=O)N4CCc5ccccc54)sc3c2)cc1 [compound 18]	+++ (compounds with a TI of >5 were labeled as +++)
Cc1ccccc1C(=O)Nc1ccc2nc(SCC(=O)Nc3ccc(F)cc3)sc2c1 [compound 20]	+++ (compounds with a TI of >5 were labeled as +++)
COc1ccccc1C(=O)Nc1ccc2nc(SCC(=O)Nc3ccc(C(C)=O)cc3)sc2c1 [compound 21]	+++ (compounds with a TI of >5 were labeled as +++)
CCOc1ccc(NC(=O)CSc2nc3ccc(NC(=O)c4ccccc4Cl)cc3s2)cc1 [compound 22]	+++ (compounds with a TI of >5 were labeled as +++)
O=C(CSc1nc2ccc(NC(=O)c3ccccc3Cl)cc2s1)Nc1ccc(F)cc1 [compound 23]	+++ (compounds with a TI of >5 were labeled as +++)
Cc1ccc(C(=O)Nc2ccc3nc(SCC(=O)Nc4ccc(C(C)C)cc4)sc3c2)cc1 [compound 24]	+++ (compounds with a TI of >5 were labeled as +++)

SMILES	Therapeutic Index (TI)
CCOc1ccc(NC(=O)CSc2nc3ccc(N4C(=O)c5ccccc5C4=O)cc3s2)cc1 [compound 25]	+++ (compounds with a TI of >5 were labeled as +++)
CCOc1ccccc1NC(=O)CSc1nc2ccc(NC(=O)c3ccccc3Cl)cc2s1 [compound 26]	+++ (compounds with a TI of >5 were labeled as +++)
Cc1cccc(NC(=O)CSc2nc3ccc(NC(=O)c4ccccc4F)cc3s2)c1C [compound 27]	+++ (compounds with a TI of >5 were labeled as +++)
COc1ccccc1NC(=O)CSc1nc2ccc(NC(=O)c3ccccc3OC)cc2s1 [compound 28]	+++ (compounds with a TI of >5 were labeled as +++)
Cc1ccccc1C(=O)Nc1ccc2nc(SCC(=O)Nc3ccccc3F)sc2c1 [compound 29]	++ (compounds with a TI of 1 to 5 were labelled as ++)
COc1ccccc1C(=O)Nc1ccc2nc(SCC(=O)N3CCc4ccccc43)sc2c1 [compound 30]	++ (compounds with a TI of 1 to 5 were labelled as ++)
O=C(Nc1ccc2nc(SCC(=O)N3CCc4ccccc43)sc2c1)c1cccc(F)c1 [compound 31]	++ (compounds with a TI of 1 to 5 were labelled as ++)
CCc1cccc(CC)c1NC(=O)CSc1nc2ccc(NC(=O)c3cccc(C)c3)cc2s1 [compound 32]	++ (compounds with a TI of 1 to 5 were labelled as ++)
COc1ccc(C(=O)Nc2ccc3nc(SCC(=O)N4CCc5ccccc54)sc3c2)cc1 [compound 33]	++ (compounds with a TI of 1 to 5 were labelled as ++)
CCCCOc1ccc(NC(=O)CSc2nc3ccc(NC(=O)c4ccc(C)cc4)cc3s2)cc1 [compound 34]	++ (compounds with a TI of 1 to 5 were labelled as ++)
CCOc1ccc(C(=O)Nc2ccc3nc(SCC(=O)Nc4ccccc4C)sc3c2)cc1 [compound 35]	++ (compounds with a TI of 1 to 5 were labelled as ++)
Cc1ccc(C(=O)Nc2ccc3nc(SCC(=O)Nc4ccccc4)sc3c2)cc1 [compound 36]	++ (compounds with a TI of 1 to 5 were labelled as ++)
Cc1ccc(NC(=O)CSc2nc3ccc(NC(=O)c4ccccc4)cc3s2)cc1Cl [compound 37]	++ (compounds with a TI of 1 to 5 were labelled as ++)
CCOc1ccc(NC(=O)C(C)Sc2nc3ccc(NC(=O)c4ccccc4)cc3s2)cc1 (stereo not drawn) [compound 38]	++ (compounds with a TI of 1 to 5 were labelled as ++)
COc1ccccc1NC(=O)CSc1nc2ccc(NC(=O)c3ccc(C)cc3)cc2s1 [compound 39]	++ (compounds with a TI of 1 to 5 were labelled as ++)
CCOc1ccc(NC(=O)CSc2nc3ccc(NC(=O)c4ccccc4OC)cc3s2)cc1 [compound 40]	++ (compounds with a TI of 1 to 5 were labelled as ++)
CCOc1ccc(NC(=O)C(C)Sc2nc3ccc(NC(=O)c4ccc(OC)cc4)cc3s2)cc1 (stereo not drawn) [compound 41]	++ (compounds with a TI of 1 to 5 were labelled as ++)
O=C(CSc1nc2ccc(NC(=O)c3ccccc3Cl)cc2s1)Nc1ccccc1F [compound 42]	++ (compounds with a TI of 1 to 5 were labelled as ++)
CCOc1ccc(C(=O)Nc2ccc3nc(SCC(=O)Nc4cc(C)cc(C)c4)sc3c2)cc1 [compound 43]	++ (compounds with a TI of 1 to 5 were labelled as ++)
COc1ccccc1C(=O)Nc1ccc2nc(SCC(=O)Nc3c(C)cc(C)cc3C)sc2c1 [compound 44]	++ (compounds with a TI of 1 to 5 were labelled as ++)
COc1cccc(C(=O)Nc2ccc3nc(SCC(=O)N(C)c4ccccc4)sc3c2)c1 [compound 45]	++ (compounds with a TI of 1 to 5 were labelled as ++)
